{
  "source": "patent US20040033517A1",
  "about": "“Compositions and methods relating to endothelial cell signaling using the protease activated receptor (PAR1)” (priority 2002, published 2004)",
  "key": {"[1]": {"system": "human umbilical vein endothelial cells HUVEC-C", "assay_type": "cell-based", "conditions": "endothelial cells", "from_the_text": "Microarray Analysis. […] Total RNA was isolated followed by reverse transcription. Purified double stranded cDNA was in vitro transcribed in the presence of biotinylated dUTP and dCTP, fragmented cRNA was hybridized to the HG-U95Av2 array (Affymetrix, Santa Clara, Calif.), followed by staining with streptavidin-phycoerythrin. Arrays were scanned and analyzed using GeneChip3.1 software. […] An average fold-induction for the three independent experiments was obtained by calculating the means of the logarithm of the individual fold-increases for each agonist."}, "[2]": {"system": "thrombin-mediated PAR1 signaling", "conditions": "100 nM hirudin; M. Riewald et al., Blood 97: 3109, 2001; cited from earlier work"}},
  "note": "Read-outs that look alike come from different tables or passages of the source.",
  "data": [
    {"substance": "Thrombin", "values": [
      {"measurement": "Induction (log 2), A1743606 wg51108.x1 Homo sapiens cDNA", "setting": "[1]", "result": "−0.05", "unit": "log 2"},
      {"measurement": "Induction (log 2), AB002450 Homo sapiens mRNA from chromosome 5q21-22, clone-A3-A", "setting": "[1]", "result": 0.45, "unit": "log 2"},
      {"measurement": "Induction (log 2), AB003184 Homo sapiens mRNA for ISLR", "setting": "[1]", "result": 0.05, "unit": "log 2"},
      {"measurement": "Induction (log 2), AB012229 fructose-6-phosphate,2-kinase/fructose-2,6-bisphosphatase", "setting": "[1]", "result": 0.25, "unit": "log 2"},
      {"measurement": "Induction (log 2), AF000421 TTF-1 interacting peptide 12 mRNA", "setting": "[1]", "result": 0.20, "unit": "log 2"},
      {"measurement": "Induction (log 2), AF015451 Homo sapiens Usurpin-beta mRNA", "setting": "[1]", "result": 0.45, "unit": "log 2"},
      {"measurement": "Induction (log 2), AF022375 Homo sapiens vascular endothelial growth factor mRNA", "setting": "[1]", "result": 0.75, "unit": "log 2"},
      {"measurement": "Induction (log 2), AF024710 Homo sapiens vascular endothelial growth factor (VEGF) mRNA", "setting": "[1]", "result": 0.90, "unit": "log 2"},
      {"measurement": "Induction (log 2), AF042083 BH3 interacting domain death agonist (BID) mRNA", "setting": "[1]", "result": 0.20, "unit": "log 2"},
      {"measurement": "Induction (log 2), AF094481 trinucleotide repeat DNA binding protein p20-CGGBP (CGGBP) gene", "setting": "[1]", "result": 0.50, "unit": "log 2"},
      {"measurement": "Induction (log 2), AF095154 Homo sapiens C1q-related factor mRNA", "setting": "[1]", "result": 0.10, "unit": "log 2"},
      {"measurement": "Induction (log 2), AF098462 Homo sapiens stanniocalcin-related protein mRNA", "setting": "[1]", "result": 1.00, "unit": "log 2"},
      {"measurement": "Induction (log 2), AJ000480 Homo sapiens mRNA for C8FW phosphoprotein", "setting": "[1]", "result": 1.15, "unit": "log 2"},
      {"measurement": "Induction (log 2), Cluster Incl U88629 Human RNA polymerase II elongation factor ELL2", "setting": "[1]", "result": 0.70, "unit": "log 2"},
      {"measurement": "Induction (log 2), Cluster Incl X66360 H.sapiens mRNA PCTAIRE-2 for serine/threonine protein kinase", "setting": "[1]", "result": 0.35, "unit": "log 2"},
      {"measurement": "Induction (log 2), D29990 Human mRNA for cationic amino acid transporter 2", "setting": "[1]", "result": 0.75, "unit": "log 2"},
      {"measurement": "Induction (log 2), D38449 Human mRNA for G protein-coupled receptor", "setting": "[1]", "result": 0.10, "unit": "log 2"},
      {"measurement": "Induction (log 2), D49817 6-phosphofructo-2-kinase/fructose-2, 6-bisphosphatase mRNA", "setting": "[1]", "result": 0.20, "unit": "log 2"},
      {"measurement": "Induction (log 2), D78579 Homo sapiens mRNA for neuron derived orphan receptor", "setting": "[1]", "result": 1.55, "unit": "log 2"},
      {"measurement": "Induction (log 2), J04102 Human erythroblastosis virus oncogene homolog 2 (ets-2) mRNA", "setting": "[1]", "result": 0.50, "unit": "log 2"},
      {"measurement": "Induction (log 2), L07261 Human alpha adducin mRNA", "setting": "[1]", "result": 0.10, "unit": "log 2"},
      {"measurement": "Induction (log 2), L19871 Human activating transcription factor 3 (ATF3) mRNA", "setting": "[1]", "result": 1.10, "unit": "log 2"},
      {"measurement": "Induction (log 2), L38487 Human estrogen receptor-related protein (hERRa1) mRNA", "setting": "[1]", "result": 0.10, "unit": "log 2"},
      {"measurement": "Induction (log 2), M14648 Human cell adhesion protein (vitronectin) receptor alpha subunit mRNA", "setting": "[1]", "result": 0.60, "unit": "log 2"},
      {"measurement": "Induction (log 2), M19481 Human follistatin gene", "setting": "[1]", "result": 1.30, "unit": "log 2"},
      {"measurement": "Induction (log 2), M22489 Human bone morphogenetic protein 2A (BMP-2A) mRNA", "setting": "[1]", "result": 0.90, "unit": "log 2"},
      {"measurement": "Induction (log 2), M28130 Human interleukin 8 (IL8) gene", "setting": "[1]", "result": 0.40, "unit": "log 2"},
      {"measurement": "Induction (log 2), M29039 Human transactivator (jun-B) gene", "setting": "[1]", "result": 0.60, "unit": "log 2"},
      {"measurement": "Induction (log 2), M36820 Human cytokine (GRO-beta) mRNA", "setting": "[1]", "result": 0.35, "unit": "log 2"},
      {"measurement": "Induction (log 2), M59964 Human stem cell factor mRNA", "setting": "[1]", "result": 0.75, "unit": "log 2"},
      {"measurement": "Induction (log 2), M64349 Human cyclin D (cyclin D1) mRNA", "setting": "[1]", "result": 0.00, "unit": "log 2"},
      {"measurement": "Induction (log 2), M96995 epidermal growth factor receptor-binding protein GRB2 (EGFRBP-GRB2) mRNA", "setting": "[1]", "result": 0.05, "unit": "log 2"},
      {"measurement": "Induction (log 2), Neurofibromatosis 2 Tumor Suppressor", "setting": "[1]", "result": 0.55, "unit": "log 2"},
      {"measurement": "Induction (log 2), Tyrosine Phosphatase, Epsilon", "setting": "[1]", "result": 1.40, "unit": "log 2"},
      {"measurement": "Induction (log 2), U08015 HumanNF-ATc mRNA", "setting": "[1]", "result": 0.55, "unit": "log 2"},
      {"measurement": "Induction (log 2), U12471 Human thrombospondin-1 gene", "setting": "[1]", "result": 0.70, "unit": "log 2"},
      {"measurement": "Induction (log 2), U12767 Human mitogen induced nuclear orphan receptor (MINOR) mRNA", "setting": "[1]", "result": 1.15, "unit": "log 2"},
      {"measurement": "Induction (log 2), U15932 Human dual-specificity protein phosphatase mRNA", "setting": "[1]", "result": 0.60, "unit": "log 2"},
      {"measurement": "Induction (log 2), U18671 Human Stat2 gene", "setting": "[1]", "result": 0.05, "unit": "log 2"},
      {"measurement": "Induction (log 2), U20816 Human nuclear factor kappa-B2 (NF-KB2) gene", "setting": "[1]", "result": 0.70, "unit": "log 2"},
      {"measurement": "Induction (log 2), U23070 Human putative transmembrane protein (nma) mRNA", "setting": "[1]", "result": 1.10, "unit": "log 2"},
      {"measurement": "Induction (log 2), U25997 Homo sapiens stanniocalcin precursor (STC) mRNA", "setting": "[1]", "result": 1.10, "unit": "log 2"},
      {"measurement": "Induction (log 2), U33838 Human NF-kappa-B p65delta3 mRNA", "setting": "[1]", "result": 0.10, "unit": "log 2"},
      {"measurement": "Induction (log 2), U42391 Human myosin-IXb mRNA", "setting": "[1]", "result": "−0.15", "unit": "log 2"},
      {"measurement": "Induction (log 2), U65093 Human msg1-related gene 1 (mrg1) mRNA", "setting": "[1]", "result": 0.95, "unit": "log 2"},
      {"measurement": "Induction (log 2), U72066 Homo sapiens CtBP interacting protein CtIP (CtIP) mRNA", "setting": "[1]", "result": 0.70, "unit": "log 2"},
      {"measurement": "Induction (log 2), U76368 Human cationic amino acid transporter-2A (ATRC2) mRNA", "setting": "[1]", "result": 0.75, "unit": "log 2"},
      {"measurement": "Induction (log 2), U83981 Homo sapiens apoptosis associated protein (GADD34) mRNA", "setting": "[1]", "result": 0.50, "unit": "log 2"},
      {"measurement": "Induction (log 2), U88629/FEATURE Human RNA polymerase II elongation factor ELL2", "setting": "[1]", "result": 0.75, "unit": "log 2"},
      {"measurement": "Induction (log 2), W28170 43a12 Homo sapiens cDNA", "setting": "[1]", "result": 0.15, "unit": "log 2"},
      {"measurement": "Induction (log 2), W28257 44c1 Homo sapiens cDNA", "setting": "[1]", "result": 0.20, "unit": "log 2"},
      {"measurement": "Induction (log 2), X02469 Human mRNA for p53 cellular tumor antigen", "setting": "[1]", "result": "−0.10", "unit": "log 2"},
      {"measurement": "Induction (log 2), X14787 Human mRNA for thrombospondin", "setting": "[1]", "result": 0.40, "unit": "log 2"},
      {"measurement": "Induction (log 2), X14798 Human DNA for c-ets-1 proto-oncogene", "setting": "[1]", "result": 0.75, "unit": "log 2"},
      {"measurement": "Induction (log 2), X16706 Human fra-2 mRNA", "setting": "[1]", "result": 0.50, "unit": "log 2"},
      {"measurement": "Induction (log 2), X51345 Human jun-B mRNA for JUN-B protein", "setting": "[1]", "result": 0.75, "unit": "log 2"},
      {"measurement": "Induction (log 2), X51435 Human PRDII-BF1 gene for a DNA-binding protein", "setting": "[1]", "result": 0.85, "unit": "log 2"},
      {"measurement": "Induction (log 2), X66360/FEATURE H.sapiens mRNA PCTAIRE-2 for serine/threonine protein kinase", "setting": "[1]", "result": 0.65, "unit": "log 2"},
      {"measurement": "Induction (log 2), X68277 H.sapiens CL 100 mRNA for protein tyrosine phosphatase", "setting": "[1]", "result": 1.75, "unit": "log 2"},
      {"measurement": "Induction (log 2), X69086 H.sapiens mRNA for utrophin", "setting": "[1]", "result": 0.60, "unit": "log 2"},
      {"measurement": "Induction (log 2), X69699 H.sapiens Pax8 mRNA", "setting": "[1]", "result": 0.10, "unit": "log 2"},
      {"measurement": "Induction (log 2), X98248 H.sapiens mRNA for sortilin", "setting": "[1]", "result": "−0.15", "unit": "log 2"},
      {"measurement": "Induction (log 2), Z12173 H.sapiens GNS mRNA encoding glucosamine-6-sulphatase", "setting": "[1]", "result": 0.60, "unit": "log 2"},
      {"measurement": "Induction (log 2), Z12830 H.sapiens mRNA for SSR alpha subunit", "setting": "[1]", "result": 0.40, "unit": "log 2"},
      {"measurement": "Induction (log 2), Z23115 H.sapiens bc1-xL mRNA", "setting": "[1]", "result": 0.10, "unit": "log 2"},
      {"measurement": "Induction (log 2), Z29083 H.sapiens 5T4 gene for 5T4 Oncofetal antigen", "setting": "[1]", "result": 0.10, "unit": "log 2"},
      {"measurement": "Induction (log 2), Z48579 H.sapiens mRNA for disintegrin-metalloprotease (partial)", "setting": "[1]", "result": 0.20, "unit": "log 2"},
      {"measurement": "Induction (log 2), D13540 Homo sapiens SH-PTP3 mRNA for protein-tyrosine phosphatase", "setting": "[1]; first entry (r8)", "result": 0.65, "unit": "log 2"},
      {"measurement": "Induction (log 2), W28616 49b9 Homo sapiens cDNA", "setting": "[1]; first entry (r15)", "result": 0.30, "unit": "log 2"},
      {"measurement": "Induction (log 2), W28616 49b9 Homo sapiens cDNA", "setting": "[1]; second entry (r30)", "result": "−0.05", "unit": "log 2"},
      {"measurement": "Induction (log 2), D13540 Homo sapiens SH-PTP3 mRNA for protein-tyrosine phosphatase", "setting": "[1]; second entry (r54)", "result": 0.40, "unit": "log 2"}
    ]},
    {"substance": "hirudin", "values": [
      {"measurement": "Block of cell surface thrombin-mediated PAR1 signaling", "setting": "[2]", "result": "block all cell surface thrombin-mediated PAR1 signaling"}
    ]}
  ]
}
